According to US11578079B2, “SUMO inhibitor compounds and uses thereof” (CITY OF HOPE, priority 2018, dated 2023):

What was measured:
c-Myc = c-Myc activity (Table I, biological activities); set-up: key: + (less active); ++ (active); +++ (most active)
SUMO = target: T1, SUMO (Homo sapiens, UniProt Q9UBT2); experiment: SUMO activity (Table I, biological activities); format: biochemical; set-up: key: + (less active); ++ (active); +++ (most active)
T1 sequence (Q9UBT2 1-640): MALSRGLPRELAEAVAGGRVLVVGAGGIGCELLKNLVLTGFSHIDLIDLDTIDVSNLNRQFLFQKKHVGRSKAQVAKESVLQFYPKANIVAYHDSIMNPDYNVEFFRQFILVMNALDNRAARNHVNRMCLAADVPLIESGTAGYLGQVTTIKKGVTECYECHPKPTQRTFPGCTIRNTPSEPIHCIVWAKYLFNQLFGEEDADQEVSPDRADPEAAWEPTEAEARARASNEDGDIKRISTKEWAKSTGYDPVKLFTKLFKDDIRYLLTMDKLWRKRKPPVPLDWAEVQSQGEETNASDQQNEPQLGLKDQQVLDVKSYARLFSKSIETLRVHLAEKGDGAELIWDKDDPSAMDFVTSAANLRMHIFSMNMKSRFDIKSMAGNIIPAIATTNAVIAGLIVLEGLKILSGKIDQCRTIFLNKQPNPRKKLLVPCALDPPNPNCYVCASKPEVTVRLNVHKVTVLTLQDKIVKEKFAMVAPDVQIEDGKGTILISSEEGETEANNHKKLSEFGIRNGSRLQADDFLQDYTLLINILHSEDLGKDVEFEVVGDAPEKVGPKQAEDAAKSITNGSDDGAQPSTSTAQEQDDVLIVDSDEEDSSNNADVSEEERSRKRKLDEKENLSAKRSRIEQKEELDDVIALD
T1 sequence (Q9UBE0 1-346 partner): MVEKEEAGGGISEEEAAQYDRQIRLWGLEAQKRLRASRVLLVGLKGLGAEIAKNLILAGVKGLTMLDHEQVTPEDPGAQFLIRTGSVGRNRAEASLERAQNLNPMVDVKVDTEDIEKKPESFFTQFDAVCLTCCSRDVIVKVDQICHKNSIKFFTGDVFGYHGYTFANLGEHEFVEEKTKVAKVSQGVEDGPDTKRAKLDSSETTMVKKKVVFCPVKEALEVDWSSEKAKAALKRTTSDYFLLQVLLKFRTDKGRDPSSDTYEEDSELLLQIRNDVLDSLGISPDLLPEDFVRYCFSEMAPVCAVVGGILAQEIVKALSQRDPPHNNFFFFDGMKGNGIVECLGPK

SMILES	SUMO (SUMO)	c-Myc (c-Myc)
COC(=O)C1=C(C(=O)NC2CCN(CCO)CC2)C2C=CC1(C(Cc1ccccc1)Nc1ccccc1)O2 (centres unmarked) [Compound 279]	+++	++
COC(=O)C1=C(C(=O)Nc2ccc(C)c(F)c2)C2C=CC1(C(Cc1ccccc1)Nc1ccccc1)O2 (centres unmarked) [Compound 285]	++	++
COC(=O)C1=C(C(=O)NC2CCN(C(C)=O)CC2)C2C=CC1(C(Cc1ccccc1)Nc1ccccc1)O2 (centres unmarked) [Compound 287]	++	++
COC(=O)C1=C(C(=O)NC2CCN(Cc3ccccc3)CC2)C2C=CC1(C(Cc1ccccc1)Nc1ccccc1)O2 (centres unmarked) [Compound 288]	++	++
COC(=O)C1=C(C(=O)Nc2ccc(C)nc2)C2C=CC1(C(Cc1ccccc1)Nc1ccccc1)O2 (centres unmarked) [Compound 289]	++	++
CCOC(=O)C1=C(C(F)(F)F)C2(C(Cc3ccccc3)Nc3ccccc3)C=CC1O2 (centres unmarked) [Compound 298]	++	+
COC(=O)C1=C(C(=O)Nc2ccccc2)C2C=CC1(C(Cc1ccccc1)Nc1ccccc1)O2 (centres unmarked) [Compound 300]	+++	+
CNC(=O)C1=C(C(=O)Nc2ccccc2)C2C=CC1(C(Cc1ccccc1)Nc1ccccc1)O2 (centres unmarked) [Compound 305]	+	+
COC(=O)C1=C(C(=O)Nc2ccc3c(c2)OCO3)C2C=CC1(C(Cc1ccccc1)Nc1ccccc1)O2 (centres unmarked) [Compound 309]	+	+
CCOC(=O)C1=C(C(=O)OCC)C2(C(Cc3ccccc3)Nc3ccc(F)cc3F)C=CC1O2 (centres unmarked) [Compound 312]	++	+
CC(C)(C)OC(=O)C1=C(C(=O)OC(C)(C)C)C2(C(Cc3ccccc3)Nc3ccc(F)cc3F)C=CC1O2 (centres unmarked) [Compound 313]	+++	+
COC(=O)C1=C(C(=O)NNc2ccc(F)c(F)c2)C2(C(Cc3ccccc3)Nc3cc(F)cc(F)c3)C=CC1O2 (centres unmarked) [Compound 315]	++	+
COC(=O)C1=C(C(=O)NNc2cc(C(F)(F)F)cc(C(F)(F)F)c2)C2(C(Cc3ccccc3)Nc3cc(F)cc(F)c3)C=CC1O2 (centres unmarked) [Compound 316]	++	+
COC(=O)C1=C(C(N)=O)C2C=CC1(C(Cc1ccccc1)Nc1cccc(Oc3ccccc3)c1)O2 (centres unmarked) [Compound 319]	+++	+
COC(=O)C1=C(C(=O)NC2CCN(C)CC2)C2C=CC1(C(Cc1ccccc1)Nc1cccc(Oc3ccccc3)c1)O2 (centres unmarked) [Compound 320]	+++	++
CCOC(=O)C1=C(C(=O)NC2CCN(C)CC2)C2C=CC1(C(Cc1ccccc1)Nc1ccc(F)cc1F)O2 (centres unmarked) [Compound 329]	+++	++
CCOC(=O)C1=C(C(=O)NC2CCN(C)CC2)C2CCC1(C(Cc1ccccc1)Nc1ccc(F)cc1F)O2 (centres unmarked) [Compound 345]	+	+
COC(=O)C1=C(C(=O)Nc2ccc(C)c(F)c2)C2C=CC1(C(Cc1ccccc1)Nc1cc(F)cc(Cl)c1)O2 (centres unmarked) [Compound 348]	++	+
COC(=O)C1=C(C(=O)Nc2ccc(C)nc2)C2CCC1(C(Cc1ccccc1)Nc1ccccc1)O2 (centres unmarked) [Compound 349]	+	+
COC(=O)C1=C(C(=O)Nc2ccc(OC)cc2OC)C2C=CC1(C(Cc1ccccc1)Nc1ccccc1)O2 (centres unmarked) [Compound 353]	+	+
COC(=O)C1=C(C(=O)Nc2cccc(F)c2C)C2C=CC1(C(Cc1ccccc1)Nc1ccccc1)O2 (centres unmarked) [Compound 359]	++	+
COCCN1CCC(NC(=O)C2=C(C(=O)OC)C3(C(Cc4ccccc4)Nc4ccccc4)CCC2O3)CC1 (centres unmarked) [Compound 367]	+	+
COC(=O)C1=C(C(=O)Nc2ccc(N3CCN(C)CC3)cc2)C2CCC1(C(Cc1ccccc1)Nc1ccccc1)O2 (centres unmarked) [Compound 371]	+	+

More lines, main results first:

SUMO (SUMO)	SMILES	c-Myc (c-Myc)
++	COC(=O)C1=C(C(=O)NC2CCN(C)CC2)C2C=CC1(C(Cc1ccccc1)Oc1ccccc1)O2 (centres unmarked) [Compound 292]	++
++	COC(=O)C1=C(C(=O)NC2CCN(C(=O)c3ccc(F)cc3)CC2)C2C=CC1(C(Cc1ccccc1)Nc1ccccc1)O2 (centres unmarked) [Compound 297]	++
+	COC(=O)C1=C(C(=O)NC2CCN(C)CC2)C2CCC1(C(Cc1ccccc1)Nc1ccccc1)O2 (centres unmarked) [Compound 304]	+
+++	COC(=O)C1=C(C(=O)OC)C2(C(Cc3ccccc3)Nc3cccc(Oc4ccccc4)c3)C=CC1O2 (centres unmarked) [Compound 307]	+
+	COC(=O)C1=C(C(=O)Nc2ccc(OC)c(F)c2)C2C=CC1(C(Cc1ccccc1)Nc1ccccc1)O2 (centres unmarked) [Compound 308]	+
+	COC(=O)C1=C(C(=O)O)C2(C(Cc3ccccc3)Nc3cc(F)cc(F)c3)C=CC1O2 (centres unmarked) [Compound 310]	+
++	COC(=O)C1=C(C(=O)NC2CCN(C)CC2)C2(C(Cc3ccccc3)Nc3cc(F)cc(F)c3)C=CC1O2 (centres unmarked) [Compound 311]	++
++	COC(=O)C1=C(C(=O)NNc2ccc(F)c(F)c2)C2C=CC1(C(Cc1ccccc1)Nc1cc(F)cc(F)c1)O2 (centres unmarked) [Compound 314]	+
+	COC(=O)C1=C(C(=O)NNc2cc(C(F)(F)F)cc(C(F)(F)F)c2)C2C=CC1(C(Cc1ccccc1)Nc1cc(F)cc(F)c1)O2 (centres unmarked) [Compound 317]	+
+++	COC(=O)C1=C(C(=O)Nc2ccc(OC)cc2)C2C=CC1(C(Cc1ccccc1)Nc1cccc(Oc3ccccc3)c1)O2 (centres unmarked) [Compound 321]	+
++	COC(=O)C1=C(C(=O)NC2CCN(C(C)C)CC2)C2C=CC1(C(Cc1ccccc1)Oc1ccccc1)O2 (centres unmarked) [Compound 324]	++
++	COC(=O)C1=C(C(=O)Nc2ccc(OC)cc2)C2C=CC1(C(Cc1ccccc1)Oc1ccccc1)O2 (centres unmarked) [Compound 325]	++
++	COC(=O)C1=C(C(=O)NCCN2CCOCC2)C2C=CC1(C(Cc1ccccc1)Oc1ccccc1)O2 (centres unmarked) [Compound 326]	++
+	COC(=O)C1=C(C(=O)Nc2ccc(C)nc2)C2C=CC1(C(Cc1ccccc1)Oc1ccccc1)O2 (centres unmarked) [Compound 333]	+
+	COC(=O)C1=C(C(=O)Nc2ccc(OC)cc2)C2CCC1(C(Cc1ccccc1)Oc1ccccc1)O2 (centres unmarked) [Compound 350]	+
+++	COC(=O)C1=C(C(=O)Nc2ccc(C)c(F)c2)C2C=CC1(C(Cc1ccccc1)Nc1ccccc1F)O2 (centres unmarked) [Compound 351]	+
++	COC(=O)C1=C(C(=O)Nc2ccccc2OC)C2C=CC1(C(Cc1ccccc1)Nc1ccccc1)O2 (centres unmarked) [Compound 352]	+
+	COC(=O)C1=C(C(=O)Nc2c(C)cccc2C)C2C=CC1(C(Cc1ccccc1)Nc1ccccc1)O2 (centres unmarked) [Compound 354]	+
+	COC(=O)C1=C(C(=O)NC2CCN(S(=O)(=O)c3ccccc3)CC2)C2C=CC1(C(Cc1ccccc1)Nc1ccccc1)O2 (centres unmarked) [Compound 358]	+
++	COC(=O)C1=C(C(=O)Nc2ccccc2C)C2C=CC1(C(Cc1ccccc1)Nc1ccccc1)O2 (centres unmarked) [Compound 360]	+
++	COC(=O)C1=C(C(=O)NC2CCN(S(C)(=O)=O)CC2)C2C=CC1(C(Cc1ccccc1)Nc1ccccc1)O2 (centres unmarked) [Compound 361]	+
+	COC(=O)C1=C(C(=O)NC2CCN(C(C)C)CC2)C2CCC1(C(Cc1ccccc1)Nc1ccccc1)O2 (centres unmarked) [Compound 366]	+
+	COC(=O)C1=C(C(=O)NC2CCN(C(C)=O)CC2)C2CCC1(C(Cc1ccccc1)Nc1ccccc1)O2 (centres unmarked) [Compound 368]	+
+	COC(=O)C1=C(C(=O)NC2CCN(Cc3ccccc3)CC2)C2CCC1(C(Cc1ccccc1)Nc1ccccc1)O2 (centres unmarked) [Compound 369]	+
+	COC(=O)C1=C(C(=O)NC2CCN(C(=O)c3ccc(F)cc3)CC2)C2CCC1(C(Cc1ccccc1)Nc1ccccc1)O2 (centres unmarked) [Compound 370]	+
++	CCN(CC)CCNC(=O)C1=C(C(=O)OC)C2(C(Cc3ccccc3)Nc3ccc(F)cc3)C=CC1O2 (centres unmarked) [Compound 375]	+
